Literature values, collected in US11091809B2, “Molecular diagnostic test for cancer” (ALMAC DIAGNOSTICS LIMITED, priority 2012, dated 2021).

Experiments:
ovarian cancer = conditions: bevacizumab monotherapy
renal cancer = conditions: bevacizumab monotherapy
rectal cancer = conditions: bevacizumab monotherapy
[1] = test system: primary peritoneal carcinoma, fallopian tube carcinoma, and epithelial ovarian carcinoma; conditions: ICON7

Substance: bevacizumab: recombinant humanised version of a murine anti-human VEGF monoclonal antibody
- patients showing partial regression (ovarian cancer): 21%
- patients showing partial regression (renal cancer): 10%
- patients showing partial regression (rectal cancer): 33%
- hazard ratio for death ([1]; bevacizumab group, patients at high risk of progression (FIGO stage IV or stage III with greater than 1.0 cm residual disease after debulking surgery)): 0.64
- hazard ratio for progression-free survival ([1]; standard chemotherapy (carboplatin and paclitaxel) and bevacizumab vs standard chemotherapy): 0.81
